Laboratory results from patent US7358074B2, “Human phosphatase RET31, and variants thereof” (Bristol-Myers Squibb Company, priority 2000, dated 2008).
Positions count from the first letter of the chain named. Entries after “also recorded” stand apart in the source; their conditions may differ.

Columns and labels:
[1] = molecular target: T1, full-length RET31 (Homo sapiens, UniProt Q9BY84, C584R/N284S/T302A); test: phosphatase activity assay, hydrolysis of para-nitrophenylphosphate (pNPP); format: biochemical; conditions: 2 mM orthovanadate; pNPP substrate; FIG. 36
T1 construct: made in house
T1 sequence (Q9BY84 with tags, fused parts or gaps N284S/T302A/C584R): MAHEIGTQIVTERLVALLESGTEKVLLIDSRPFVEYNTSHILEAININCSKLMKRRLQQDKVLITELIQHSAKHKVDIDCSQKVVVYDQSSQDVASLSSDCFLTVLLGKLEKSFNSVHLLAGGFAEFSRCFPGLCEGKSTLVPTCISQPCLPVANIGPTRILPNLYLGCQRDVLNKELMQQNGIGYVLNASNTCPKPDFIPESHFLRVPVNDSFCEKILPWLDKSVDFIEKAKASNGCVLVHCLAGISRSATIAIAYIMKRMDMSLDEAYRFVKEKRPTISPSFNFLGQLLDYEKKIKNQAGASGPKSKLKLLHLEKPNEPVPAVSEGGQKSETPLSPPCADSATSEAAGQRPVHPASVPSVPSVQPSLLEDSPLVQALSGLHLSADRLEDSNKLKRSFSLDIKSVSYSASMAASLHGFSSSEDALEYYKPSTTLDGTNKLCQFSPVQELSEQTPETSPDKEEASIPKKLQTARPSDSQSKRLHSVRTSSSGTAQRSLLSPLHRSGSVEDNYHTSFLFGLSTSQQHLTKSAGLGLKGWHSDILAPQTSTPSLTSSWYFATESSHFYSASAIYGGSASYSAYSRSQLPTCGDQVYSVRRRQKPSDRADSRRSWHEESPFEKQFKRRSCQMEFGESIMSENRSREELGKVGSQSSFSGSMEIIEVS
Protocol: (§1) The phosphatase activity for the full-length RET31 and the M1 to T302 C-terminal RET31 GST fusion proteins were measured by assaying the ability of the proteins to hydrolyze para-nitrophenylphosphate, a compound known to be a substrate for phosphatases, as described in Krejsa, C. et al., J. Biol. Chem. Vol. 272, p. 11541-11549, 1997 (which is hereby incorporated in its entirety herein). The proteins are incubated with para-nitrophenylphosphate in a solution containing 10 mM imidazole, pH 7.0, 1 mM EDTA, 2 mM dithiothreitol, and 5 μg/ml BSA for 2 hours with and without sodium orthovanadate (Fisher) prepared in distilled water. The progress of the phosphatase reaction in a 96-well format was monitored by the OD405 nm on a plate reader (Molecular Devices) at 10-minute intervals in the kinetic mode.
(§2) The RET31-GST full length (FL), M1 to T302 C-terminal RET31-GST (trunc), or GST alone were purified and assayed for cleavage of para-nitrophenylphosphate (pNPP). The bars represent the average of triplicate determinations, and the standard deviations are as shown. Each protein preparation was assayed in the absence and presence of 2 mM of the phosphatase inhibitor orthovanadate. In addition, the full length and truncated protein phosphatase activity was blocked by the phosphatase inhibitor vanadate, as shown.

[2] = molecular target: T2, M1 to T302 C-terminal RET31 (Homo sapiens, UniProt Q9BY84, I6V/M5I/N284S); test: as above; format: biochemical; conditions: 2 mM orthovanadate; pNPP substrate; FIG. 36
T2 construct: made in house
T2 sequence (Q9BY84 1-302 M5I/I6V/N284S): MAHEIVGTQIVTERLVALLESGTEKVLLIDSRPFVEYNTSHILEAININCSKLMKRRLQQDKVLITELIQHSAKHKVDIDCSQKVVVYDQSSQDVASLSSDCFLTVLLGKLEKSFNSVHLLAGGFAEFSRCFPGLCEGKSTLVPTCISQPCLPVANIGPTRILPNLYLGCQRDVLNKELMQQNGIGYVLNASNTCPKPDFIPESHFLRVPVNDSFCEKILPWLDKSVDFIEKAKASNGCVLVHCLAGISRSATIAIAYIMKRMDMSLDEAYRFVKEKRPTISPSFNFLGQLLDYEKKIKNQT
Protocol: as §1, §2

[3] = test system: RET31; test: para-nitrophenylphosphate (pNPP) phosphatase activity assay of purified RET31-GST fusion proteins; format: biochemical, human
Protocol: The bars represent the average of triplicate determinations, and the standard deviations are as shown. Each protein preparation was assayed in the absence and presence of 2 mM orthovanadate (”-van”). […] The phosphatase assays were performed as described in Example 57 herein.
In addition to assaying the full-length RET31 polypeptide (SEQ ID NO:109), a C-terminal deletion of RET31 was also assayed corresponding to amino acids M1 to T302 of SEQ ID NO:109).

[4] = test system: human lung fibroblasts; test: human lung fibroblast proliferation assay, Alamar Blue; format: cell-based; conditions: 3 days in basal medium, expected (should show)
Protocol: Human lung fibroblasts are obtained from Clonetics (San Diego, Calif.) and maintained in growth media from Clonetics. Dermal microvascular endothelial cells are obtained from Cell Applications (San Diego, Calif.). For proliferation assays, the human lung fibroblasts and dermal microvascular endothelial cells can be cultured at 5,000 cells/well in a 96-well plate for one day in growth medium. The cells are then incubated for one day in 0.1% BSA basal medium. After replacing the medium with fresh 0.1% BSA medium, the cells are incubated with the test proteins for 3 days. Alamar Blue (Alamar Biosciences, Sacramento, Calif.) is added to each well to a final concentration of 10%. The cells are incubated for 4 hr. Cell viability is measured by reading in a CytoFluor fluorescence reader. For the PGE2 assays, the human lung fibroblasts are cultured at 5,000 cells/well in a 96-well plate for one day. […]

[Na+].[Na+].[Na+].[O]=[V]([O-])([O-])[O-] [orthovanadate, sodium orthovanadate]
effect of phosphatase inhibitor on phosphatase activity [1]: blocked | effect of phosphatase inhibitor on phosphatase activity [2]: blocked

[O]=[V]([O-])([O-])[O-] [vanadate]
inhibition of RET31 phosphatase activity ([3]; 2 mM orthovanadate, full-length and M1 to T302 RET31-GST): blocked; also recorded: specifically inhibited

FGF-2: FGF-2 (basic FGF), comparison growth factor
concentration showing stimulation of growth of fibroblasts [4]: 10 to 2500 ng/mL

B1: M1 to T302 RET31 C-terminal deletion mutant: C-terminal deletion of RET31 corresponding to amino acids M1 to T302 of SEQ ID NO:109, GST fusion (protein, listed as Homo sapiens)
chain: T2 sequence (Q9BY84 1-302 M5I/I6V/N284S) with I5M, V6I, M180I, N193Y, S284N
modifications: GST fusion partner lacks entry
increase in phosphatase activity relative to the full-length RET31 polypeptide ([3]; pNPP substrate, GST fusion proteins): five fold increase | phosphatase activity via cleavage of the NPP substrate ([3]; purified GST fusion protein, pNPP substrate, compared to purified GST alone): demonstrated phosphatase activity
